Values joined by “and” are separate entries in the source; they are usually repeats but may differ in a detail not shown here. Equal entries are not always repeated. Toxic doses and inconclusive results are not listed. No stated cut-off is given here; in the data, active means T/C of 150% or more; inactive means T/C below 125%.
System: L1210 leukemia ip in BDF1 mice, survival T/C
Experiment: NCI In Vivo Anticancer Drug Screen. Data for tumor model L1210 Leukemia (intraperitoneal) in B6D2F1 (BDF1) mice
Conditions: endpoint: mean survival time, higher = longer survival
In short: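 In this screen, tumor-bearing mice given compound are compared to those given vehicle, and their survival values are reported as a treated-to-control quotient.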

[1] = dose: 100.0 mg/kg/injection, schedule: Q01DX009 (ip), vehicle: Klucel (hydroxypropylcellulose) (HPC)
[2] = dose: 200.0 mg/kg/injection, schedule: Q01DX009 (ip), vehicle: Klucel (hydroxypropylcellulose) (HPC)
[3] = dose: 100.0 mg/kg/injection, schedule: Q01DX001 (ip), vehicle: saline
[4] = dose: 200.0 mg/kg/injection, schedule: Q01DX001 (ip), vehicle: saline
[5] = dose: 400.0 mg/kg/injection, schedule: Q01DX001 (ip), vehicle: saline
[6] = dose: 100.0 mg/kg/injection, schedule: Q04DX003 (ip), vehicle: saline
[7] = dose: 200.0 mg/kg/injection, schedule: Q04DX003 (ip), vehicle: saline
[8] = dose: 400.0 mg/kg/injection, schedule: Q04DX003 (ip), vehicle: saline
[9] = dose: 100.0 mg/kg/injection, schedule: Q01DX009 (ip), vehicle: saline with Tween-80
[10] = dose: 100.0 mg/kg/injection, schedule: Q04DX003 (ip), vehicle: saline with Tween-80
[11] = dose: 200.0 mg/kg/injection, schedule: Q01DX009 (ip), vehicle: saline with Tween-80
[12] = dose: 200.0 mg/kg/injection, schedule: Q04DX003 (ip), vehicle: saline with Tween-80
[13] = dose: 400.0 mg/kg/injection, schedule: Q04DX003 (ip), vehicle: saline with Tween-80
[14] = dose: 400.0 mg/kg/injection, schedule: Q01DX009 (ip), vehicle: Klucel (hydroxypropylcellulose) (HPC)
[15] = dose: 100.0 mg/kg/injection, schedule: Q04DX003 (ip), vehicle: Klucel (hydroxypropylcellulose) (HPC)
[16] = dose: 200.0 mg/kg/injection, schedule: Q04DX003 (ip), vehicle: Klucel (hydroxypropylcellulose) (HPC)
[17] = dose: 400.0 mg/kg/injection, schedule: Q04DX003 (ip), vehicle: Klucel (hydroxypropylcellulose) (HPC)
[18] = dose: 50.0 mg/kg/injection, schedule: Q01DX009 (ip), vehicle: saline
[19] = dose: 100.0 mg/kg/injection, schedule: Q01DX001 (ip), vehicle: other
[20] = dose: 200.0 mg/kg/injection, schedule: Q01DX001 (ip), vehicle: other
[21] = dose: 400.0 mg/kg/injection, schedule: Q01DX001 (ip), vehicle: other

Measured: T/C

CN=C(NCc1ccccc1)c1ccc(NC(=O)c2ccc(C(=O)Nc3ccc(C(=NC)NCc4ccccc4)cc3)c(Cl)c2)cc1
inactive: dose: 2.0 mg/kg/injection, schedule: Q01DX Z (ip), vehicle: carboxymethylcellulose (CMC) 92 % of control | dose: 4.0 mg/kg/injection, schedule: Q01DX Z (ip), vehicle: carboxymethylcellulose (CMC) 105 % of control | dose: 8.0 mg/kg/injection, schedule: Q01DX Z (ip), vehicle: carboxymethylcellulose (CMC) 105 % of control

O=C(Nc1ccc([N+](=O)[O-])cc1)c1cc(Cl)c2ccccc2c1O
inactive: [1] 106 % of control | [2] 98 % of control

C1=CC2CCC1NO2 (stereo unspecified)
inactive: [3] 105 % of control | [4] 95 % of control | [5] 101 % of control

CCc1c(O)c2ccc3ccccc3c2oc1=O
inactive: [6] 97 % of control | [7] 94 % of control | [8] 94 % of control

CCOc1ccc(NC(=O)Oc2ccc(C(=O)OC)cc2)cc1
inactive: dose: 100.0 mg/kg/injection, schedule: Q01DX001 (ip), vehicle: saline with Tween-80 93 % of control | [9] 101 % of control and 103 % of control | dose: 100.0 mg/kg/injection, schedule: Q04DX002 (ip), vehicle: saline with Tween-80 103 % of control and 92 % of control | [10] 105 % of control | dose: 200.0 mg/kg/injection, schedule: Q01DX001 (ip), vehicle: saline with Tween-80 91 % of control | [11] 100 % of control and 103 % of control | dose: 200.0 mg/kg/injection, schedule: Q04DX002 (ip), vehicle: saline with Tween-80 95 % of control and 92 % of control | [12] 103 % of control | dose: 400.0 mg/kg/injection, schedule: Q01DX001 (ip), vehicle: saline with Tween-80 91 % of control | dose: 400.0 mg/kg/injection, schedule: Q01DX009 (ip), vehicle: saline with Tween-80 93 % of control and 94 % of control | dose: 400.0 mg/kg/injection, schedule: Q04DX002 (ip), vehicle: saline with Tween-80 103 % of control | [13] 105 % of control

COc1ccc(S(=O)(=O)Nc2cccc(C(F)(F)F)c2)cc1
inactive: [1] 102 % of control | [2] 102 % of control | [14] 100 % of control

CCc1[nH]c(=S)ncc1-c1ccc([N+](=O)[O-])cc1O
inactive: [15] 93 % of control | [16] 93 % of control | [17] 106 % of control

COC(=O)CCC(NC(=O)c1cccc(N(C)C=O)c1)C(=O)OC (stereo unspecified)
inactive: dose: 50.0 mg/kg/injection, schedule: Q01DX009 (ip), vehicle: saline with Tween-80 97 % of control | [9] 95 % of control | [11] 105 % of control

N#CCN(CC#N)CCN(CC#N)CC#N
inactive: [1] 95 % of control | [15] 103 % of control | [2] 92 % of control | [16] 90 % of control | [14] 93 % of control | [17] 105 % of control

CO/C(N)=N\C(=O)NC1CC(OC(=O)c2ccc(C)cc2)C(COC(=O)c2ccc(C)cc2)O1 (stereo unspecified)
inactive: [6] 98 % of control | [7] 104 % of control | [8] 96 % of control

CN(N=O)C(=O)NCCCCCNC(=O)N(C)N=O
inactive: dose: 6.25 mg/kg/injection, schedule: Q01DX Z (ip), vehicle: carboxymethylcellulose (CMC) 102 % of control | dose: 12.5 mg/kg/injection, schedule: Q01DX Z (ip), vehicle: carboxymethylcellulose (CMC) 100 % of control | dose: 25.0 mg/kg/injection, schedule: Q01DX Z (ip), vehicle: carboxymethylcellulose (CMC) 106 % of control | dose: 50.0 mg/kg/injection, schedule: Q01DX Z (ip), vehicle: carboxymethylcellulose (CMC) 108 % of control | dose: 210.0 mg/kg/injection, schedule: Q01DX001 (ip), vehicle: carboxymethylcellulose (CMC) 117 % of control
active: dose: 150.0 mg/kg/injection, schedule: Q01DX Z (ip), vehicle: carboxymethylcellulose (CMC) 191 % of control | dose: 175.0 mg/kg/injection, schedule: Q01DX Z (ip), vehicle: carboxymethylcellulose (CMC) 166 % of control | dose: 200.0 mg/kg/injection, schedule: Q01DX Z (ip), vehicle: carboxymethylcellulose (CMC) 158 % of control

CN(C)CC(CN1c2ccccc2Sc2ccccc21)N(C)C (stereo unspecified)
inactive: dose: 6.25 mg/kg/injection, schedule: Q01DX009 (ip), vehicle: saline 94 % of control | dose: 12.5 mg/kg/injection, schedule: Q01DX009 (ip), vehicle: saline 105 % of control | dose: 25.0 mg/kg/injection, schedule: Q01DX009 (ip), vehicle: saline 92 % of control | dose: 25.0 mg/kg/injection, schedule: Q04DX003 (ip), vehicle: saline 96 % of control | [18] 101 % of control | dose: 50.0 mg/kg/injection, schedule: Q04DX003 (ip), vehicle: saline 93 % of control | [6] 90 % of control

O=C(/C(=N/O)c1ccccc1)c1ccccc1
inactive: dose: 50.0 mg/kg/injection, schedule: Q01DX001 (ip), vehicle: other 103 % of control | [19] 97 % of control | [20] 105 % of control | [21] 100 % of control

O=C1c2cc(Cl)cc(Cl)c2-c2c1cc(Cl)cc2[N+](=O)[O-]
inactive: [1] 97 % of control | [15] 97 % of control | [2] 95 % of control | [16] 97 % of control | [14] 97 % of control | [17] 92 % of control

CC(=O)OCC(OC(C)=O)C(OC(C)=O)C(OC(C)=O)C(C#N)OC(C)=O (stereo unspecified)
inactive: dose: 50.0 mg/kg/injection, schedule: Q01DX001 (ip), vehicle: saline 106 % of control | [19] 115 % of control | [3] 103 % of control | [20] 102 % of control | [4] 95 % of control | [21] 96 % of control | [5] 91 % of control

CNC(=O)Oc1ccc2ccccc2c1[N+](=O)[O-]
inactive: dose: 75.0 mg/kg/injection, schedule: Q01DX001 (ip), vehicle: other 101 % of control

O=P(NC1CCCCC1)(OCc1ccccc1)N(CCCl)CCCl (stereo unspecified)
inactive: dose: 10.0 mg/kg/injection, schedule: Q01DX Z (ip), vehicle: water 98 % of control | dose: 20.0 mg/kg/injection, schedule: Q01DX Z (ip), vehicle: water 91 % of control | dose: 40.0 mg/kg/injection, schedule: Q01DX Z (ip), vehicle: water 96 % of control | dose: 80.0 mg/kg/injection, schedule: Q01DX009 (ip), vehicle: water 93 % of control | dose: 160.0 mg/kg/injection, schedule: Q01DX009 (ip), vehicle: water 89 % of control

O=C1c2ccccc2C(=O)N1CNc1ccccc1S
inactive: [1] 100 % of control | [2] 104 % of control | [14] 109 % of control

O=P(O)(O)Cc1c(Cl)c(Cl)c(CP(=O)(O)O)c(Cl)c1Cl
inactive: [3] 107 % of control | [4] 104 % of control | [5] 104 % of control

CCCCCCNc1c([N+](=O)[O-])cc(C)cc1[N+](=O)[O-]
inactive: [1] 100 % of control | [15] 103 % of control | [2] 111 % of control | [16] 116 % of control | [14] 96 % of control | [17] 108 % of control

O=C(c1ccc(O)c(C(=O)O)c1)c1ccc(O)c(C(=O)O)c1
inactive: dose: 100.0 mg/kg/injection, schedule: Q01DX001 (ip), vehicle: carboxymethylcellulose (CMC) 95 % of control | dose: 200.0 mg/kg/injection, schedule: Q01DX001 (ip), vehicle: carboxymethylcellulose (CMC) 95 % of control | dose: 400.0 mg/kg/injection, schedule: Q01DX001 (ip), vehicle: carboxymethylcellulose (CMC) 101 % of control

O=C(O)/C(=C/c1ccccc1)c1ccc2ccccc2c1Br
inactive: [1] 107 % of control | dose: 100.0 mg/kg/injection, schedule: Q04DX003 (ip), vehicle: other 100 % of control | [2] 95 % of control | dose: 200.0 mg/kg/injection, schedule: Q04DX003 (ip), vehicle: other 100 % of control | [14] 109 % of control | dose: 400.0 mg/kg/injection, schedule: Q04DX003 (ip), vehicle: other 95 % of control

CN(CCO)C(=O)/C=C/c1ccccc1
inactive: [18] 100 % of control | dose: 100.0 mg/kg/injection, schedule: Q01DX009 (ip), vehicle: saline 94 % of control | dose: 200.0 mg/kg/injection, schedule: Q01DX009 (ip), vehicle: saline 92 % of control

CC1=CC(=O)C=CC1(C)C(Cl)Cl (stereo unspecified)
inactive: [10] 107 % of control | [12] 100 % of control | [13] 97 % of control

Source: PubChem BioAssay AID248 (DTP/NCI, 2004)
